Laboratory results: patent US11518760B2 (Liverpool School of Tropical Medicine, priority 2017, dated 2022)
pEC50: −log10 of the molar value.

The compounds below were run on C6/36 Aedes albopictus cell line infected with Wolbachia pipientis (Wolbachia strain wAlbB) (assay: In vitro insect cell line assay (anti-Wolbachia screen, SYTO 11 high content imaging)). Conditions: 168 h; C6/36 Aedes albopictus cells infected with Wolbachia pipientis wAlbB, 7 days incubation, SYTO 11 imaging; read-out: In vitro anti-Wolbachia activity.
Type: cell-based
Summary of the method: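 SYTO 11 staining (15 min), high-content imaging and texture analysis were the read-out on day 7. Before that, C6/36 mosquito cells carrying Wolbachia strain wAlbB were incubated at 26 °C with test compound at 5 μM final, alongside DMSO-only control wells.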
`CC(C)Nc1nc(NCc2ccc(C(F)(F)F)cc2)c2sccc2n1` [Example 109, N^2-isopropyl-N^4-(4-(trifluoromethyl)benzyl)thieno[3,2-d]pyrimidine-2,4-diamine] was tested, and the pEC50 was 4.00 to 6.00.
Work on `Oc1nc(NCc2ccccc2C(F)(F)F)c2cccnc2n1` [Example 157, 4-((2-(trifluoromethyl)benzyl)amino)pyrido[2,3-d]pyrimidin-2-ol] yielded a pEC50 of 4.00 to 6.00.
Work on `FC(F)(F)c1ccccc1CNc1nc(Cl)nc2ccccc12` [Example 57, 2-chloro-N-(2-(trifluoromethyl)benzyl)quinazolin-4-amine] yielded a pEC50 of 7.00 to 8.00.
Work on `CC1COCCN1c1nc(NCc2cccnc2C(F)(F)F)c2cc(F)cnc2n1` (stereo not drawn) [Example 303, 6-fluoro-2-(3-methylmorpholino)-N-((2-(trifluoromethyl)pyridin-3-yl)methyl)pyrido[2,3-d]pyrimidin-4-amine] yielded a pEC50 of 6.00 to 7.00.
For `CC(C)N(C)c1nc(N2CCCN2c2ccccc2C(F)(F)F)c2cccnc2n1` [Example 190, N-isopropyl-N-methyl-4-(2-(2-(trifluoromethyl)phenyl)pyrazolidin-1-yl)pyrido[2,3-d]pyrimidin-2-amine], the pEC50 was 6.00 to 7.00.
Work on `CC(Nc1ncnc2c(Br)csc12)c1ccccc1C(F)(F)F` (stereo not drawn) [Example 106, 7-bromo-N-(1-(2-(trifluoromethyl)phenyl)ethyl)thieno[3,2-d]pyrimidin-4-amine] yielded a pEC50 of 4.00 to 6.00.
For `CC1CN(c2nc(NCc3cccnc3C(F)(F)F)c3cccnc3n2)C[C@H](C)O1` (stereo partly drawn) [Example 254, 2-((6S)-2,6-dimethylmorpholino)-N-((2-(trifluoromethyl)pyridin-3-yl)methyl)pyrido[2,3-d]pyrimidin-4-amine], the pEC50 was 9.00 to 11.00.
In the case of `CC1(C)COCCN1c1nc(NCc2ccccc2C(F)(F)F)c2cccnc2n1` [Example 246, 2-(3,3-dimethylmorpholino)-N-(2-(trifluoromethyl)benzyl)pyrido[2,3-d]pyrimidin-4-amine], the pEC50 was 6.00 to 7.00.
For `CC(C)Nc1nc(NCc2cccnc2C(F)(F)F)c2cccnc2n1` [Example 150, N^2-isopropyl-N^4-((2-(trifluoromethyl)pyridin-3-yl)methyl)pyrido[2,3-d]pyrimidine-2,4-diamine], the pEC50 was 7.00 to 8.00.
In the case of `NC(=O)c1nc(NCc2ccccc2C(F)(F)F)c2sccc2n1` [Example 155, 4-((2-(trifluoromethyl)benzyl)amino)thieno[3,2-d]pyrimidine-2-carboxamide], the pEC50 was 4.00 to 6.00.
`N#Cc1nc(NCc2ccccc2C(F)(F)F)c2sccc2n1` [Example 80] was tested, and the pEC50 was 7.00 to 8.00.
`C[C@@H]1[C@@H](C)OCCN1c1nc(NCc2cccnc2C(F)(F)F)c2cccnc2n1` [Example 270, 2-((2R,3R)-2,3-dimethylmorpholino)-N-((2-(trifluoromethyl)pyridin-3-yl)methyl)pyrido[2,3-d]pyrimidin-4-amine] gave a pEC50 of 8.00 to 9.00.
Compound `O=C(Nc1ncnc2ccsc12)c1ccccc1C(F)(F)F` [Example 37, N-(thieno[3,2-d]pyrimidin-4-yl)-2-(trifluoromethyl)benzamide] has a pEC50 of 4.00 to 6.00.
In the case of `CC1COCCN1c1nc(NCc2cccnc2C(F)(F)F)c2cccnc2n1` (stereo not drawn) [Example 193, 2-(3-methylmorpholino)-N-((2-(trifluoromethyl)pyridin-3-yl)methyl)pyrido[2,3-d]pyrimidin-4-amine], the pEC50 was 8.00 to 9.00.
For `FC1(F)CCN(c2nc(N3CCC3c3ccccc3C(F)(F)F)c3cccnc3n2)C1` (stereo not drawn) [Example 215, 2-(3,3-difluoropyrrolidin-1-yl)-4-(2-(2-(trifluoromethyl)phenyl)azetidin-1-yl)pyrido(2,3-d]pyrimidine], the pEC50 was 7.00 to 8.00.
Work on `N#CC1CN(c2nc(NCc3ccccc3C(F)(F)F)c3cccnc3n2)CCO1` (stereo not drawn) [Example 283, 4-(4-((2-(trifluoromethyl)benzyl)amino)pyrido[2,3-d]pyrimidin-2-yl)morpholine-2-carbonitrile] yielded a pEC50 of 9.00 to 11.00.
Work on `CC(C)Sc1nc(NCc2cccnc2C(F)(F)F)c2cccnc2n1` [Example 164, 2-(isopropylthio)-N-((2-(trifluoromethyl)pyridin-3-yl)methyl)pyrido[2,3-d]pyrimidin-4-amine] yielded a pEC50 of 8.00 to 9.00.
In the case of `CC1(C)CCN1c1nc(NCc2cccnc2C(F)(F)F)c2cccnc2n1` [Example 173, 2-(2,2-dimethylazetidin-1-yl)-N-((2-(trifluoromethyl)pyridin-3-yl)methyl)pyrido[2,3-d]pyrimidin-4-amine], the pEC50 was 8.00 to 9.00.
In the case of `Cc1nc(N(C)C(C)c2ccccc2C(F)(F)F)c2sccc2n1` (stereo not drawn) [Example 66, N,2-dimethyl-N-(1-(2-(trifluoromethyl)phenyl)ethyl)thieno[3,2-d]pyrimidin-4-amine], the pEC50 was 8.00 to 9.00.
In the case of `CC(C)Nc1nc(NCc2ccc(C(F)(F)F)nc2)c2ccccc2n1` [Example 114, N^2-isopropyl-N^4-((6-(trifluoromethyl)pyridin-3-yl)methyl)quinazoline-2,4-diamine], the pEC50 was 6.00 to 7.00.
`FC1(F)CCN(Cc2nc(NCc3cccnc3C(F)(F)F)c3cccnc3n2)CC1` [Example 228, 2-((4,4-difluoropiperidin-1-yl)methyl)-N-((2-(trifluoromethyl)pyridin-3-yl)methyl)pyrido[2,3-d]pyrimidin-4-amine] was tested, and the pEC50 was 6.00 to 7.00.
`CS(=O)(=O)C1CCN(c2nc(NCc3cccnc3C(F)(F)F)c3cccnc3n2)C1` (stereo not drawn) [Example 263, 2-(3-(methylsulfonyl)pyrrolidin-1-yl)-N-((2-(trifluoromethyl)pyridin-3-yl)methyl)pyrido[2,3-d]pyrimidin-4-amine] showed a pEC50 of 6.00 to 7.00.
With `FC(F)(F)c1ccccc1CNc1nc(N2CCCC2)nc2ccsc12` [Example 93, 2-(pyrrolidin-1-yl)-N-(2-(trifluoromethyl)benzyl)thieno[3,2-d]pyrimidin-4-amine] the pEC50 was 6.00 to 7.00.
With `FC(F)(F)c1ncccc1CNc1nc(N2CCC2)nc2ncccc12` [Example 163, 2-(azetidin-1-yl)-N-((2-(trifluoromethyl)pyridin-3-yl)methyl)pyrido[2,3-d]pyrimidin-4-amine] the pEC50 was 7.00 to 8.00.
`CC(C)Nc1nc(NCc2ccc(C#N)cc2)c2cccnc2n1` [Example 126, N^4-(4-cyanobenzyl)-N^2-isopropylpyrido[2,3-d]pyrimidine-2,4-diamine] showed a pEC50 of 6.00 to 7.00.
`CC(C)Nc1nc(NCc2ccc(Cl)cc2)c2ccccc2n1` [Example 136, N^4-(4-chlorobenzyl)-N^2-isopropylquinazoline-2,4-diamine] showed a pEC50 of 4.00 to 6.00.
For `FC(F)(F)c1ccccc1CNc1nc(N2CC3CC2CO3)nc2ncccc12` (stereo not drawn) [Example 267, 2-(2-oxa-5-azabicyclo[2.2.1]heptan-5-yl)-N-(2-(trifluoromethyl)benzyl)pyrido[2,3-d]pyrimidin-4-amine], the pEC50 was over 11.00.
With `FC1(F)CCN(c2nc(NCc3ccccc3C(F)(F)F)c3cccnc3n2)CC1` [Example 196, 2-(4,4-difluoropiperidin-1-yl)-N-(2-(trifluoromethyl)benzyl)pyrido[2,3-d]pyrimidin-4-amine] the pEC50 was 9.00 to 11.00.
For `FC(F)(F)c1ccccc1CNc1nc(N2CCOC3CC32)nc2ncccc12` (stereo not drawn) [Example 301, 2-(2-oxa-5-azabicyclo[4.1.0]heptan-5-yl)-N-(2-(trifluoromethyl)benzyl)pyrido[2,3-d)pyrimidin-4-amine], the pEC50 was 9.00 to 11.00.
Compound `Clc1nc(NC2(c3ccccc3Cl)CC2)c2sccc2n1` [Example 47, 2-chloro-N-(1-(2-chlorophenyl)cyclopropyl)thieno[3,2-d]pyrimidine-4-diamine] has a pEC50 of 4.00 to 6.00.
For `FC(F)(F)c1ncccc1CNc1nc(N2CCC(Cl)CC2)nc2ncccc12` [Example 199, 2-(4-chloropiperidin-1-yl)-N-((2-(trifluoromethyl)pyridin-3-yl)methyl)pyrido[2,3-d]pyrimidin-4-amine], the pEC50 was 8.00 to 9.00.
`CN(Cc1ccccc1C(F)(F)F)c1nc(C(F)(F)F)nc2ccsc12` [Example 62, N-methyl-2-(trifluoromethyl)-N-(2-(trifluoromethyl)benzyl)thieno[3,2-d]pyrimidin-4-amine] gave a pEC50 of 7.00 to 8.00.
Compound `CC1COCCN1Cc1nc(NCc2cccnc2C(F)(F)F)c2cccnc2n1` (stereo not drawn) [Example 229, 2-((3-methylmorpholino)methyl)-N-((2-(trifluoromethyl)pyridin-3-yl)methyl)pyrido[2,3-d]pyrimidin-4-amine] has a pEC50 of 4.00 to 6.00.
`CN(c1nc(NCc2cccnc2C(F)(F)F)c2cccnc2n1)C1CC1` [Example 175, N^2-cyclopropyl-N^2-methyl-N^4-((2-(trifluoromethyl)pyridin-3-yl)methyl)pyrido[2,3-d]pyrimidine-2,4-diamine] showed a pEC50 of 8.00 to 9.00.
With `CC(C)Nc1nc(NC(C)c2ccccc2C(F)(F)F)c2sccc2n1` (stereo not drawn) [Example 53, N^2-isopropyl-N^4-(1-(2-(trifluoromethyl)phenyl)ethyl)thieno[3,2-d]pyrimidine-2,4-diamine] the pEC50 was 8.00 to 9.00.
In the case of `FC(F)(F)c1ncccc1C1CCN1c1nc(N2CC(C(F)(F)F)C2)nc2ncccc12` (stereo not drawn) [Example 221, 2-(3-(trifluoromethyl)azetidin-1-yl)-4-(2-(2-(trifluoromethyl)pyridin-3-yl)azetidin-1-yl)pyrido[2,3-d]pyrimidine], the pEC50 was 8.00 to 9.00.
In the case of `CC(Nc1ncnc2c(C#N)csc12)c1ccccc1C(F)(F)F` (stereo not drawn) [Example 108, 4-((1-(2-(trifluoromethyl)phenyl)ethyl)amino)thieno[3,2-d]pyrimidine-7-carbonitrile], the pEC50 was 4.00 to 6.00.
In the case of `Cc1nc(N(C)C(C)c2ccccc2C(F)(F)F)c2sc(C3(O)COC3)cc2n1` (stereo not drawn) [Example 76], the pEC50 was 4.00 to 6.00.
`Cc1nc(N(C)C(C)c2ccccc2C(F)(F)F)c2sc(C)cc2n1` (stereo not drawn) [Example 69, N,2,6-trimethyl-N-(1-(2-(trifluoromethyl)phenyl)ethyl)thieno[3,2-d]pyrimidin-4-amine] gave a pEC50 of 4.00 to 6.00.
Compound `CC(C)Nc1nc(NCc2ccccc2F)c2sccc2n1` [Example 11] has a pEC50 of 6.00 to 7.00.
Compound `FC(F)(F)c1cccnc1CNc1ncnc2ccsc12` [Example 61, N-((3-(trifluoromethyl)pyridin-2-yl)methyl)thieno[3,2-d]pyrimidin-4-amine] has a pEC50 of 4.00 to 6.00.

Same assay, conditions: C6/36 Aedes albopictus cells infected with Wolbachia pipientis wAlbB, 7 days incubation, SYTO 11 imaging; read-out: In vitro anti-Wolbachia activity
“2-((3R)-3,5-dimethylmorpholino)-N-(2-(trifluoromethyl)benzyl)pyrido[2,3-d]pyrimidin-4-amine [Example 302]” was tested, and the pEC50 was over 11.00.
